For experiment [1], the system named is BT474 and HN5 tumor cell lines. Briefly: Methylene blue growth inhibition assay (cellular Method A). In kind it is cell-based, Human. To be noted: Homo sapiens, BT-474, 72 h, 3 days, read-out: Activity (Method): growth inhibition IC50 class. In short, it runs like this:
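Colo205, BT474 and HN5 cells in DMEM/10% FBS (BT474 10,000, HN5 3,000 cells/well) treated next day with compound in DMEM, 0.3% final DMSO, for 3 days at 37° C. Biomass stained with methylene blue, solubilized, read at OD 620; IC50 interpolated by nonlinear regression from % inhibition versus vehicle.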

The target of the next experiment is T1, ErbB2 or EGFR.
T1 construct: enzymes purified from a baculovirus expression system; Reagent production was conducted essentially as described in Brignola, P. S., et al, (2002) J. Biol. Chem. 277(2): 1576-1585
The experiment in a line: ErbB family substrate phosphorylation enzyme assay (HTRF), Method A or Method B. In kind it is biochemical. In short, it runs like this: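 Baculovirus-expressed EGFR or ErbB2 (0.8 or 10 nM in enzyme mix) phosphorylates biotinylated Peptide C with 20 µM ATP and 0.8 µM peptide (substrate-mix levels), MnCl2, pH 7.5. Reaction ran 90 min at 20 °C with EDTA stop and HTRF anti-phosphotyrosine read. Method A: enzyme added last; Method B: 1 h enzyme–compound preincubation.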
Background: Time-resolved FRET reads energy transfer from a long-lived donor to a nearby acceptor.

The next experiment relates to Colo205 tumor cell lines. The experiment in a line: Methylene blue growth inhibition assay (cellular Method A), Colo205. To be noted: Homo sapiens, COLO 205, 72 h, 3 days, read-out: Activity (Method): growth inhibition IC50 class. In kind it is cell-based, Human. The procedure: Human breast (BT474) and head and neck (HN5) were cultured in low glucose DMEM (Life Technologies 12320-032) containing 10% fetal bovine serum (FBS). Human colon tumor cells (Colo205) were cultured in DMEM (Invitrogen, 10564) containing 10% FBS. The SV40 transformed human mammary epithelial cell line HB4a was transfected with either human H-ras cDNA (HB4a r4.2) or the human c-ErbB2 cDNA (HB4a c5.2). The HB4a clones were cultured in RPMI containing 10% FBS, insulin (5 g/mL), hydrocortisone (5 g/mL), supplemented with the selection agent hygromycin B (50 g/mL). All lines were grown in a humidified incubator at 37° C. in 95% air, 5% CO2. Cells were harvested using trypsin/EDTA, counted using a haemocytometer, and plated in 100 microliters of the appropriate media, at the following densities, in a 96-well tissue culture plate (Falcon 3075): BT474 10,000 cells/well, HN5 3,000 cells/well. The next day, compounds were diluted in DMEM containing […] gentamicin, at twice the final required concentration, from 10 mM stock solutions in DMSO. 100 microliters/well of these dilutions were added to the 100 microliters of media currently on the cell plates. Medium containing 0.6% DMSO was added to control wells. Compounds diluted in DMEM were added to all cell lines. The final concentration of DMSO in all wells was 0.3%. Cells were returned to the incubator (37° C., 10% CO2) for 3 days. Medium was then removed by aspiration. Cell biomass was estimated by staining cells with 90 microliters per well methylene blue (Sigma M9140, 0.5% in 1:1 ethanol:water), and incubation at rt for at least 30 minutes. Stain was removed, and the plates rinsed by immersion in deionized water and air-dried. To release stain from the cells 100 microliters of solubilization solution was added (1% N-lauroyl sarcosine, Sodium salt, Sigma L5125, in PBS), and plates were shaken gently for about 30 minutes. Optical density at 620 nm was measured on a microplate reader. Percent inhibition of cell growth was calculated relative to vehicle treated control wells. Concentration of compound that inhibits 50% of control cell growth (IC50) was interpolated using nonlinear regression (Levenberg-Marquardt) and the equation, y=Vmax*(1−(x/(K+x)))+Y2, where “K” was equal to the IC50. Method B: Celltiter Glo® Growth Inhibition Assays

Where [2] appears, read: Method B: enzyme mix pre-incubated with compound 1 hour at 20° C., started with substrate mix.
Where [3] appears, read: Method A: substrate mix added first, reaction started with enzyme mix.

One may read the IC50 as the midpoint of a concentration-inhibition curve.

On to `O=C(Nc1cccc(-c2nn3ccccc3c2-c2ccnc(Nc3ccc(CCN4CCOCC4)cc3)n2)c1)c1c(F)cccc1F` [Example 56, 2,6-Difluoro-N-(3-{3-[2-({4-[2-(4-morpholinyl)ethyl]-phenyl}amino)-4-pyrimidinyl]pyrazolo[1,5-a]pyridin-2-yl}phenyl)benzamide], for which the half-inhibitory concentration (IC50) in experiment [1] is less than 100 nM; in the experiment with Colo205 tumor cell lines, 100 to 1000 nM. Also, the “Activity (Method): pIC50 class against ErbB2 or EGFR” value (shortened to “Activity (Method): pIC50 class”) at ErbB2 or EGFR (setting [2]) is “+++ (B) (at least one pIC50 measurement of greater than 7 against either ErbB2 or EGFR)”.
The matching figures for `COc1ccc(Nc2nccc(-c3c(-c4cccc(NC(=O)c5c(F)cccc5F)c4)nn4ccccc34)n2)cc1OCCN(C)C` [Example 167, N-{3-[3-(2-{[3-{[2-(Dimethylamino)ethyl]oxy}-4-(methyloxy)phenyl]amino}-4-pyrimidinyl)pyrazolo[1,5-a]pyridin-2-yl]phenyl}-2,6-difluorobenzamide]: less than 100 nM, 100 to 1000 nM and “+++ (B) (at least one pIC50 measurement of greater than 7 against either ErbB2 or EGFR)”.
As to `O=C(Nc1cccc(-c2nn3ccccc3c2-c2ccnc(Nc3ccc(OCCN4CCCCC4)c(F)c3)n2)c1)c1c(F)cccc1F` [Example 134, 2,6-Difluoro-N-[3-(3-{2-[(3-fluoro-4-{[2-(1-piperidinyl)ethyl]oxy}phenyl)amino]-4-pyrimidinyl}pyrazolo[1,5-a]pyridin-2-yl)phenyl]benzamide], the IC50 in experiment [1] was less than 100 nM; with Colo205 tumor cell lines, more than 1000 nM. Further, on ErbB2 or EGFR (setting [3]), the “Activity (Method): pIC50 class” value was “+++ (A) (at least one pIC50 measurement of greater than 7 against either ErbB2 or EGFR)”.
For `O=C(Nc1cccc(-c2nn3ccccc3c2-c2ccnc(Nc3ccc(OCCCS(=O)(=O)O)c(Cl)c3)n2)c1)c1c(F)cccc1F` [Example 161, 3-{[2-Chloro-4-({4-[2-(3-{[(2,6-difluorophenyl)carbonyl]amino}-phenyl)pyrazolo[1,5-a]pyridin-3-yl]-2-pyrimidinyl}amino)phenyl]oxy}-1-propanesulfonic acid], the IC50 (in experiment [1]; with Colo205 tumor cell lines) was more than 1000 nM throughout. On ErbB2 or EGFR (setting [2]), the “Activity (Method): pIC50 class” value is on record as “+++ (B) (at least one pIC50 measurement of greater than 7 against either ErbB2 or EGFR)”.
For the molecule `Cc1cccc2c(-c3ccnc(Nc4cccc(F)c4)n3)c(-c3cccc(NC(=O)c4c(F)cccc4F)c3)nn12` [Example 156, 2,6-Difluoro-N-[3-(3-{2-[(3-fluorophenyl)amino]-pyrimidin-4-yl}-7-methylpyrazolo[1,5-a]pyridin-2-yl)phenyl]benzamide], the IC50 was 100 to 1000 nM in experiment [1] and more than 1000 nM in the experiment with Colo205 tumor cell lines. Moreover, the “Activity (Method): pIC50 class” value at ErbB2 or EGFR (setting [3]) is recorded as “++ (A) (at least one pIC50 measurement greater than 6 against either ErbB2 or EGFR but no measurement greater than pIC50 of 7)”.
Turning to `Cc1nc2cc(Nc3nccc(-c4c(-c5cccc(NC(=O)c6c(F)cccc6F)c5)nn5ccccc45)n3)ccc2s1` [Example 199, 2,6-Difluoro-N-[3-(3-{2-[(2-methyl-1,3-benzothiazol-5-yl)amino]-4-pyrimidinyl}pyrazolo[1,5-a]pyridin-2-yl)phenyl]benzamide], the results for the IC50 (in experiment [1]; in the experiment with Colo205 tumor cell lines) were less than 100 nM and more than 1000 nM, respectively. The “Activity (Method): pIC50 class” value on ErbB2 or EGFR (setting [2]) is recorded as “+++ (B) (at least one pIC50 measurement of greater than 7 against either ErbB2 or EGFR)”.
The matching figures for `NS(=O)(=O)CCc1cccc(Nc2nccc(-c3c(-c4cccc(NC(=O)c5c(F)cccc5F)c4)nn4ccccc34)n2)c1` [Example 119, N-(3-{3-[2-({3-[2-(aminosulfonyl)ethyl]phenyl}-amino)-4-pyrimidinyl]pyrazolo[1,5-a]pyridin-2-yl}phenyl)-2,6-difluorobenzamide]: less than 100 nM, 100 to 1000 nM and “+++ (B) (at least one pIC50 measurement of greater than 7 against either ErbB2 or EGFR)”.
Regarding `O=C(Nc1cccc(-c2nn3ccccc3c2-c2ccnc(Nc3cccc(CCCN4CCOCC4)c3)n2)c1)c1c(F)cccc1F` [Example 55, 2,6-Difluoro-N-(3-{3-[2-({3-[3-(4-morpholinyl)propyl]-phenyl}amino)-4-pyrimidinyl]pyrazolo[1,5-a]pyridin-2-yl}phenyl)benzamide], the IC50 in experiment [1] was less than 100 nM; in the experiment on Colo205 tumor cell lines it was 100 to 1000 nM. Besides, the “Activity (Method): pIC50 class” value at ErbB2 or EGFR (setting [2]) is “+++ (B) (at least one pIC50 measurement of greater than 7 against either ErbB2 or EGFR)”.
Consider `O=C(Nc1cccc(-c2nn3ccccc3c2-c2ccnc(Nc3ccc(OCCN4CCCC4=O)c(F)c3)n2)c1)c1c(F)cccc1F` [Example 133, 2,6-Difluoro-N-[3-(3-{2-[(3-fluoro-4-{[2-(2-oxo-1-pyrrolidinyl)ethyl]oxy}phenyl)amino]-4-pyrimidinyl}pyrazolo[1,5-a]pyridin-2-yl)phenyl]benzamide], for which the figures for the IC50 (in experiment [1]; in the experiment on Colo205 tumor cell lines) were less than 100 nM and 100 to 1000 nM, respectively. Also, on ErbB2 or EGFR (setting [2]), the “Activity (Method): pIC50 class” value is “+++ (B) (at least one pIC50 measurement of greater than 7 against either ErbB2 or EGFR)”.
The matching figures for `CCN1CCN(c2ccc(Nc3nccc(-c4c(-c5cccc(NC(=O)c6c(F)cccc6F)c5)nn5ccccc45)n3)cc2)CC1` [Example 107, N-{3-[3-(2-{[4-(4-ethyl-1-piperazinyl)phenyl]amino}-4-pyrimidinyl)pyrazolo[1,5-a]pyridin-2-yl]phenyl}-2,6-difluorobenzamide]: less than 100 nM, less than 100 nM and “+++ (B) (at least one pIC50 measurement of greater than 7 against either ErbB2 or EGFR)”.
For `Cc1ccc(F)c(C(=O)Nc2cccc(-c3nn4ccccc4c3-c3ccnc(Nc4cccc(OCCN(C)C)c4)n3)c2)c1F` [Example 190, N-[3-(3-{2-[(3-{[2-(Dimethylamino)ethyl]oxy}phenyl)amino]-4-pyrimidinyl}pyrazolo[1,5-a]pyridin-2-yl)phenyl]-2,6-difluoro-3-methylbenzamide] the same measures were less than 100 nM, 100 to 1000 nM and “+++ (B) (at least one pIC50 measurement of greater than 7 against either ErbB2 or EGFR)”.
Regarding `CC(=O)Nc1cccc(Nc2nccc(-c3c(-c4cccc(NC(=O)c5cc(F)ccc5F)c4)nn4ccccc34)n2)c1` [Example 47, N-{3-[3-(2-{[3-(acetylamino)phenyl]amino}-4-pyrimidinyl)pyrazolo[1,5-a]pyridin-2-yl]phenyl}-2,5-difluorobenzamide], the results for the IC50 (in experiment [1]; in the experiment on Colo205 tumor cell lines) were 100 to 1000 nM and more than 1000 nM, respectively. Also, the “Activity (Method): pIC50 class” value on ErbB2 or EGFR (setting [3]) was “+++ (A) (at least one pIC50 measurement of greater than 7 against either ErbB2 or EGFR)”.
As for `O=C(Nc1cccc(-c2nn3ccccc3c2-c2ccnc(Nc3cccc(F)c3)n2)c1)c1cc(F)ccc1Cl` [Example 11, 2-Chloro-5-fluoro-N-(3-{3-[2-(3-fluoro-phenylamino)-pyrimidin-4-yl]-pyrazolo[1,5-a]pyridin-2-yl}-phenyl)-benzamide], the IC50 in experiment [1] is 100 to 1000 nM; in the experiment with Colo205 tumor cell lines, more than 1000 nM. In addition, on ErbB2 or EGFR (setting [2]), the “Activity (Method): pIC50 class” value was “+++ (B) (at least one pIC50 measurement of greater than 7 against either ErbB2 or EGFR)”.
With `O=C(Nc1cccc(-c2nn3ccccc3c2-c2ccnc(Nc3ccc(N4CCCC4=O)cc3)n2)c1)c1cc(F)ccc1F` [Example 50, 2,5-Difluoro-N-{3-[3-(2-{[4-(2-oxo-1-pyrrolidinyl)phenyl]amino}-4-pyrimidinyl)pyrazolo[1,5-a]pyridin-2-yl]phenyl}benzamide], the IC50 in experiment [1] is 100 to 1000 nM; with Colo205 tumor cell lines it was more than 1000 nM. Besides, at ErbB2 or EGFR (setting [3]), the “Activity (Method): pIC50 class” value is “+++ (A) (at least one pIC50 measurement of greater than 7 against either ErbB2 or EGFR)”.

(Values after patent US7812022B2 (GlaxoSmithKline LLC, priority 2004, dated 2010).)
